In patent publication US20260124197A1, “NOVEL HETEROBICYCLIC COMPOUND FOR INHIBITING YAP-TEAD INTERACTION AND PHARMACEUTICAL COMPOSITION COMPRISING SAME” (priority 2022, published 2026):

Test system: TEAD transcriptional activity
Test: TEAD reporter activity inhibition test (luciferase reporter, MCF7 cell line)
Format: cell-based
Conditions: Homo sapiens; TEAD (GTIIC) firefly luciferase reporter MCF7 cell line, 24 hours, ONE-Glo luminescence
Experimental: Experimental Example 1: TEAD Reporter Activity Inhibition Test
The ability of the synthetic compounds to inhibit TEAD target gene transcription was measured. This evaluation method measures the transcriptional activity of TEAD by measuring the luciferase luminescence expressed when TEAD binds to a target gene and activates transcription using the MCF7 cell line (BPS Bioscience, Inc., USA) in which a firefly luciferase reporter gene has been introduced into the specific binding structure of TEAD, GTIIC (5′-ACATTCCA-3′). Cell lines were cultured in MEM medium added with 10% FBS, 1% Penicillin/Streptomycin, 1% non-essential amino acids, 10 μg/ml insulin, and 400 μg/ml Geneticin, and Geneticin was excluded when testing for inhibition of TEAD reporter activity. […] cells/100 μl were dispensed into a white 96-well plate and cultured for 6 hours. 50 μl of the test compound diluted to 3× concentration was mixed into each well. After 24 hours of cell culture, the luciferase signal was measured by luminescence using the ONE-Glo luciferase assay system (Promega, E6120) following the manufacturer's protocol. The 50% inhibition value (IC50) for TEAD transcriptional activity was calculated using GraphPad Prism 9.
If the IC50 value is less than 100 nM, it is indicated as A, if it is at least 100 nM but less than 500 nM, it is indicated as B, and if it is 500 nM or more, it is indicated as C.

SMILES | IC50 [nM]
CNS(=O)(=O)c1ccc2c(c1)c(-c1cn(CC(F)(F)F)cn1)cn2-c1ccc(C(F)(F)F)cc1 [Example 37, N-methyl-3-(1-(2,2,2-trifluoroethyl)-1H-imidazol-4-yl)-1-(4-(trifluoromethyl)phenyl)-1H-indole-5-sulfonamide] | < 100
CNS(=O)(=O)c1ccc2c(c1)c(N1CC(F)C1)cn2-c1ccc(C(F)(F)F)cc1 [Example 46, 3-(3-fluoroazetidin-1-yl)-N-methyl-1-(4-(trifluoromethyl)phenyl)-1H-indole-5-sulfonamide] | < 100
CNS(=O)(=O)c1ccc2c(c1)c(-c1cn(Cc3ccccc3F)cn1)cn2-c1ccc(C(F)(F)F)cc1 [Example 30, 3-(1-(2-fluorobenzyl)-1H-imidazol-4-yl)-N-methyl-1-(4-(trifluoromethyl)phenyl)-1H-indole-5-sulfonamide] | < 100
CNS(=O)(=O)c1ccc2c(c1)c(-c1ccccc1)cn2-c1ccc(C(F)(F)F)cc1 [Example 17, N-methyl-3-phenyl-1-(4-(trifluoromethyl)phenyl)-1H-indole-5-sulfonamide] | 100 to 500
CNS(=O)(=O)c1ccc2c(c1)c(-c1c[nH]cn1)cn2-c1ccc(C(F)(F)F)cc1 [Example 29, 3-(1H-imidazol-4-yl)-N-methyl-1-(4-(trifluoromethyl)phenyl)-1H-indole-5-sulfonamide] | 100 to 500
CNS(=O)(=O)c1ccc2c(c1)c(-c1ccn(C)n1)cn2-c1ccc(C(F)(F)F)cc1 [Example 3, N-methyl-3-(1-methyl-1H-pyrazol-3-yl)-1-(4-(trifluoromethyl)phenyl)-1H-indole-5-sulfonamide] | 100 to 500
CNS(=O)(=O)c1ccc2c(c1)c(-c1ccc(C(F)(F)F)o1)cn2-c1ccc(C(F)(F)F)cc1 [Example 34, N-methyl-3-(5-(trifluoromethyl)furan-2-yl)-1-(4-(trifluoromethyl)phenyl)-1H-indole-5-sulfonamide] | 100 to 500
CNS(=O)(=O)c1ccc2c(c1)c(-c1cn(C)cn1)cn2-c1ccc(C(F)(F)F)cn1 [Example 12, N-methyl-3-(1-methyl-1H-imidazol-4-yl)-1-(5-(trifluoromethyl)pyridin-2-yl)-1H-indole-5-sulfonamide] | 100 to 500
CNS(=O)(=O)c1ccc2c(c1)c(-c1nccnc1C)cn2-c1ccc(C(F)(F)F)cc1 [Example 1, N-methyl-3-(3-methylpyrazin-2-yl)-1-(4-(trifluoromethyl)phenyl)-1H-indole-5-sulfonamide] | ≥ 500
CNS(=O)(=O)c1ccc2c(c1)c(-c1ccc(C)s1)cn2-c1ccc(C(F)(F)F)cc1 [Example 9, N-methyl-3-(5-methylthiophen-2-yl)-1-(4-(trifluoromethyl)phenyl)-1H-indole-5-sulfonamide] | 100 to 500
CNS(=O)(=O)c1ccc2c(c1)c(-c1cn(CC(=O)N(C)C)cn1)cn2-c1ccc(C(F)(F)F)cc1 [Example 47, N,N-dimethyl-2-(4-(5-(N-methylsulfamoyl)-1-(4-(trifluoromethyl)phenyl)-1H-indol-3-yl)-1H-imidazole-1-yl) acetamide] | ≥ 500
CNS(=O)(=O)c1ccc2c(c1)c(-c1cn(CCS(C)(=O)=O)cn1)cn2-c1ccc(C(F)(F)F)cc1 [Example 48, N-methyl-3-(1-(2-(methylsulfonyl)ethyl)-1H-imidazol-4-yl)-1-(4-(trifluoromethyl)phenyl)-1H-indole-5-sulfonamide] | 100 to 500
CNS(=O)(=O)c1ccc2c(c1)c(-c1cccc(F)c1F)cn2-c1ccc(C(F)(F)F)cc1 [Example 25, 3-(2,3-difluorophenyl)-N-methyl-1-(4-(trifluoromethyl)phenyl)-1H-indole-5-sulfonamide] | < 100
CNS(=O)(=O)c1ccc2c(c1)c(-c1cn(C3COC3)cn1)cn2-c1ccc(C(F)(F)F)cc1 [Example 35, N-methyl-3-(1-(oxetan-3-yl)-1H-imidazol-4-yl)-1-(4-(trifluoromethyl)phenyl)-1H-indole-5-sulfonamide] | 100 to 500
CNS(=O)(=O)c1ccc2c(c1)c(-c1cn3c(n1)CCC3)cn2-c1ccc(C(F)(F)F)cc1 [Example 45, 3-(6,7-dihydro-5H-pyrrolo[1,2-a]imidazol-2-yl)-N-methyl-1-(4-(trifluoromethyl)phenyl)-1H-indole-5-sulfonamide] | < 100
CNS(=O)(=O)c1ccc2c(c1)c(-c1ccc(Cl)o1)cn2-c1ccc(C(F)(F)F)cc1 [Example 36, 3-(5-chlorofuran-2-yl)-N-methyl-1-(4-(trifluoromethyl)phenyl)-1H-indole-5-sulfonamide] | 100 to 500

Results, then the molecule that gave them:

IC50 [nM] | SMILES
100 to 500 | CNS(=O)(=O)c1ccc2c(c1)c(-c1cn(C)cn1)cn2-c1ccc(Cl)cc1 [Example 14, 1-(4-chlorophenyl)-N-methyl-3-(1-methyl-1H-imidazol-4-yl)-1H-indole-5-sulfonamide]
100 to 500 | CCNS(=O)(=O)c1ccc2c(c1)c(-c1cn(C)cn1)cn2-c1ccc(C(F)(F)F)cc1 [Example 7, N-ethyl-3-(1-methyl-1H-imidazol-4-yl)-1-(4-(trifluoromethyl)phenyl)-1H-indole-5-sulfonamide]
≥ 500 | CNS(=O)(=O)c1ccc2c(c1)c(-c1cn(C)cn1)cn2-c1ccc(C2CCCCC2)cc1 [Example 18, 1-(4-cyclohexylphenyl)-N-methyl-3-(1-methyl-1H-imidazol-4-yl)-1H-indole-5-sulfonamide]
≥ 500 | CNS(=O)(=O)c1ccc2c(c1)c(-c1cn(C)cn1)cn2-c1ccccc1 [Example 26, N-methyl-3-(1-methyl-1H-imidazol-4-yl)-1-phenyl-1H-indole-5-sulfonamide]
≥ 500 | CNS(=O)(=O)c1ccc2c(c1)c(-c1cn(C)cn1)cn2-c1ccc(C#N)cc1 [Example 22, 1-(4-cyanophenyl)-N-methyl-3-(1-methyl-1H-imidazol-4-yl)-1H-indole-5-sulfonamide]
100 to 500 | CNS(=O)(=O)c1ccc2c(c1)c(-c1cn(C)cn1)cn2-c1cccc(C(F)(F)F)c1 [Example 21, N-methyl-3-(1-methyl-1H-imidazol-4-yl)-1-(3-(trifluoromethyl)phenyl)-1H-indole-5-sulfonamide]
≥ 500 | CN(C)S(=O)(=O)c1ccc2c(c1)c(-c1cn(C)cn1)cn2-c1ccc(C(F)(F)F)cc1 [Example 19, N,N-dimethyl-3-(1-methyl-1H-imidazol-4-yl)-1-(4-(trifluoromethyl)phenyl)-1H-indole-5-sulfonamide]
100 to 500 | CNS(=O)(=O)c1ccc2c(-c3cn(C)cn3)cn(-c3ccc(C(F)(F)F)cc3)c2c1 [Example 33, N-methyl-3-(1-methyl-1H-imidazol-4-yl)-1-(4-(trifluoromethyl)phenyl)-1H-indole-6-sulfonamide]
100 to 500 | CNS(=O)(=O)c1ccc2c(c1)c(-c1cn(C)cn1)cn2-c1ccc(OC(F)(F)F)cc1 [Example 5, N-methyl-3-(1-methyl-1H-imidazol-4-yl)-1-(4-(trifluoromethoxy)phenyl)-1H-indole-5-sulfonamide]
< 100 | CNS(=O)(=O)c1ccc2c(c1)c(-c1cn(C)cn1)cn2-c1ccc(C(C)(C)C)cc1 [Example 40, 1-(4-(t-butyl)phenyl)-N-methyl-3-(1-methyl-1H-imidazol-4-yl)-1H-indole-5-sulfonamide]
100 to 500 | CNS(=O)(=O)c1ccc2c(c1)c(-c1cn(C)cn1)cn2-c1ccc(C)cc1 [Example 39, N-methyl-3-(1-methyl-1H-imidazol-4-yl)-1-(p-tolyl)-1H-indole-5-sulfonamide]
